The source of these data is article PMC4374176 (ACS Chemical Biology, 2014).

Ends that are not written are not given here. Peptide text beside a SMILES is read from it.

For one assay, the target named is T1, AT1R (Rattus norvegicus, UniProt P25095).
T1 construct: expressed in transfected cells; host or cells: HEK-293T, transient, crude membranes
T1 sequence (P25095 1-359): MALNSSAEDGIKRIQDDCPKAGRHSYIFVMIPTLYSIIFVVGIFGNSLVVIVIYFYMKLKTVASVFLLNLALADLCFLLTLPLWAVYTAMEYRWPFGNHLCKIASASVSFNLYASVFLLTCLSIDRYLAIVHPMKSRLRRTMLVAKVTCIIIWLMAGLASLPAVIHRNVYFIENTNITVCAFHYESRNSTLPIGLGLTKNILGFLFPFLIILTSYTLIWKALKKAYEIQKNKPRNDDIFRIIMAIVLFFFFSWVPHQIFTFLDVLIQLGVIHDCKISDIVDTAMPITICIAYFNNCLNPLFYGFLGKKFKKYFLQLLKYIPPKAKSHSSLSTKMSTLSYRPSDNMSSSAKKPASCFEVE
Description: [125I]-AII radioligand binding on isolated membranes, AT1R. Conditions: competition with [125I]-AII, ligand concentration range 6.4 x 10-12-2.5 x 10^-6 M.

Assay [1] has as its target T2, AT2R (Homo sapiens, UniProt P50052).
T2 construct: expressed in transfected cells
T2 sequence (P50052 1-363): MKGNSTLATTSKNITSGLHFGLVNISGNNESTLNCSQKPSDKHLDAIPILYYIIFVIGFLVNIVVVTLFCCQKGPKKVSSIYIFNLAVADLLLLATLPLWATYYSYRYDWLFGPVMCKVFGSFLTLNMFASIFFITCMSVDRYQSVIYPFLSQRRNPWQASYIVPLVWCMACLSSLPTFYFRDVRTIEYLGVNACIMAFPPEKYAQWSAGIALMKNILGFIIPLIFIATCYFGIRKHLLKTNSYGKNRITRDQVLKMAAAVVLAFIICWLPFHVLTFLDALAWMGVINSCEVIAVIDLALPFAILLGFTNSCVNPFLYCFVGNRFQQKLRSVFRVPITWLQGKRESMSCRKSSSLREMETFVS
Description: Whole cell competition binding assay, AT2R-HEK-293 stable cell line. The note with it: for Fold selectivity AT1R/AT2R (IC50AT1R/IC50AT2R): whole cell IC50 values; for IC50: whole cells, Table S4, read-out: Log IC50 AT2R (converted); for fold lower AT2R selectivity in comparison to [Y]6-AII: AT2R/AT1R selectivity relative to [Y]6-AII. From the text:
(§1) Materials. AT2R receptor-specific blocker PD123319 was purchased from Sigma-Aldrich Chemical Co. (St. Louis, MO). Human AGTR2 pcDNA3.1+ was obtained from the UMR cDNA Resource Center (University of Missouri-Rolla, Rolla, MO). All other chemicals were of analytic grade. The AT1aR and AT2R constructs were a kind gift from Lazlo Hunyady (Semmelweis University, Budapest, Hungary;1).
(§2) Mutagenesis. AT2R mutants were generated as described elsewhere.2
Cell culture and transient transfection. HEK-293T cells were maintained at 37 °C in Dulbecco's modified Eagle's medium (DMEM) supplemented with 10% (v/v) fetal bovine serum (FBS), 2 mM glutamine, 100 U/ml penicillin, and 100 µg/ml streptomycin. Cells were transfected with either AT1R (pcDNA3.1), AT2R
(pcDNAI/Amp) or AT2R variants using GeneJuice transfection reagent according to the manufacturer’s instructions. Cells were harvested 48 hours after transfection, crude membranes were prepared and resuspended in binding buffer (50 mM Tris-HCl pH 7.4, 100 mM NaCl, 10 mM MgCl2, 1mM EDTA, 0.2% BSA and 0.025% Bacitracin, protease inhibitors) at a protein concentration of 3.3 μg/μl as determined by the amido black protein assay. For whole cells assays, HEK-293 cells stably transfected with either AT1R or the AT2R (kindly supplied by Professor W. Thomas, University of Queensland) were used. These cells were grown to approximately 80% confluence and were then re-plated into 48 well plates at 1x10^5 cells/well and grown for 48 hours at 37°C for a whole cell competition binding assay, as described previously.4 Minor differences between the binding assays performed on isolated membrane preparation and whole cells are probably due to the loss of G-protein in the former.5 PC12W cells, a substrain from a clonal isolation of a rat adrenal chromaffin cell tumor, were cultured in DMEM supplemented with 10% FBS, 100 units/ml penicillin and 100μg/ml streptomycin (Invitrogen, Carlsbad, CA) as previously described.6 The cells were incubated in a 5% CO2 humidified incubator at 37°C. Preparation of recombinant replication-deficient adenovirus containing the human AT2R coding region was carried out by VECTOR BIOLABS (Philadelphia, PA).
For gene transduction with adenoviral vectors cells were seeded at 1.2 x 10^5 cells per well in a 6-well plate. After 24 hours, cells were incubated at 37°C for 6 hours in serum-free DMEM containing adenoviral vectors (Ad-AT2R 30 multiplicity of infection (MOI)), and shaken lightly every fifteen minutes. After 6 hr incubation, cells were cultured in 10% FBS containing DMEM at 37°C, 5% CO2 for an additional 24 hours.
Cells were then trypsinized and subcultured at a density of 2 x 10^3 cells per well on a 24-well plate. For the evaluation of the effect of [Y]6-AII analogue on the neurite outgrowth of PC12W cells, at 24 hours after subculture, control cells and the AT2R […]
Radioligand binding assays. Saturation curves on cell membranes were obtained using 10 μg protein per data point and a range of *125I]-AII (Amersham) concentration […]
(§3) 0-10 nM (8 data points in triplicate). Non-specific binding was determined in […]
Competition assays were performed using a concentration […]
the Figure 3. Samples were incubated for 2 hours at 4°C. Receptor-bound and free radioligand were separated by filtration through Whatman GF/B filters, pre-soaked with 0.3% polyethylamine. The filters were washed with 5 ml of ice-cold binding buffer and transferred to scintillation tubes. Radioactivity was counted on a Beckman LS6000 liquid scintillation counter and data were analyzed by non-linear regression using Prism software (GraphPad). Ki values were calculated according to the Cheng […]
Experiments on whole cells were performed in both AT1R- and AT2R-HEK-293 stable cell lines, as previously described in detail4 with minor modifications. Novel peptides and references compounds, CGP42112 and candesartan, were examined for their ability to inhibit specific binding of [125I]-Ang II, and nonspecific binding was determined using 10μM cold Ang II. […]

Assay [2] addresses AT2R. Description: [125I]-AII radioligand binding on isolated membranes, wild type AT2R. The note with it: saturation assay, membranes of transfected HEK-293T cells, 2 hours on ice.
Excerpt: as §1, §2
Cell culture and transient transfection. HEK-293T cells were maintained at 37 °C in Dulbecco's modified Eagle's medium (DMEM) supplemented with 10% (v/v) fetal bovine serum (FBS), 2 mM glutamine, 100 U/ml penicillin, and 100 µg/ml streptomycin. […]
(§4) (pcDNAI/Amp) or AT2R variants using GeneJuice transfection reagent according to the manufacturer’s instructions. Cells were harvested 48 hours after transfection, crude membranes were prepared and resuspended in binding buffer (50 mM Tris-HCl pH 7.4, 100 mM NaCl, 10 mM MgCl2, 1mM EDTA, 0.2% BSA and 0.025% Bacitracin, protease inhibitors) at a protein concentration of 3.3 μg/μl as determined by the amido black protein assay. […]
as §3
the Figure 3. […] Radioactivity was counted on a Beckman LS6000 liquid scintillation counter and data were analyzed by non-linear regression using Prism software (GraphPad). […]

Assay [3] deals with AT2R-overexpressing PC12W cells. Briefly: Neurite outgrowth in AT2R-overexpressing PC12W cells. In kind it is cell-based, rat. The note with it: Ad-AT2R transduced PC12W cells, 1 nM, 24 h stimulation; dose-dependent in the range of 1 pM to 100 nM. The method, then:
Figure 3 (a) Competition binding assays of [Y]^6-AII analogue to AT1R, AT2R wild type, and mutants: AT1R, open circle; wild type AT2R, black circles; AT2R-Y189A, blue diamonds; AT2R-Y189N, green triangle; AT2R-F272(6.51)A, red square; AT2R-F272(6.51)H, orange triangle. Kd and Ki values are given in Supplementary Table S3. […] The neurite outgrowth-positive cells were defined as the cells with neurite length longer than their cell diameters. This experiment was carried out in triplicate and repeated twice.
as §1
Mutagenesis. AT2R mutants were generated as described elsewhere.2 […]
as §4

In a further assay the test system is PAR4 receptor. Set-up: method as in Faruqi T., et al. [12]. Conditions: ref Faruqi T., et al. [12]; cited from earlier work.
The next assay has as its system PAR1 receptor. Set-up: method as in Faruqi T., et al. [12]. The note with it: ref Faruqi T., et al. [12]; cited from earlier work.

The IC50 is the concentration at which inhibition is half-maximal. Consider `CC[C@H](C)[C@H](NC(=O)[C@H](Cc1ccc(O)cc1)NC(=O)[C@@H](NC(=O)[C@H](CCCNC(=N)N)NC(=O)[C@@H](N)CC(=O)O)C(C)C)C(=O)N[C@@H](Cc1ccc(OP(=O)(O)O)cc1)C(=O)N1CCC[C@H]1C(=O)N[C@@H](Cc1ccccc1)C(=O)O` [[4-OPO3H2-F]^6-AII, D1-R2-V3-Y4-I5-(4-OPO3H2-F)6-P7-F8] (HELM PEPTIDE1{D.R.V.Y.I.[O=C([C@H](Cc1ccc(OP(=O)(O)O)cc1)N[*:1])[*:2]].P.F}$$$$V2.0), for which, at AT1R, the “Ki AT1R” value was “No detectable competitive binding”. In addition, on AT2R [1], the “Fold selectivity AT1R/AT2R (IC50AT1R/IC50AT2R)” value (shortened to “Fold selectivity AT1R/AT2R”) was 4479 fold and the IC50 was 9.57 nM. Usually Kd stands for the free concentration of one partner at which half of the binding sites on the other are occupied at equilibrium, for simple one-to-one binding. The low end stands for higher affinity, the high end for lower affinity. As for `CC[C@H](C)[C@H](NC(=O)[C@H](Cc1ccc(O)cc1)NC(=O)[C@@H](NC(=O)[C@H](CCCNC(=N)N)NC(=O)[C@@H](N)CC(=O)O)C(C)C)C(=O)N[C@@H](Cc1c[nH]cn1)C(=O)N1CCC[C@H]1C(=O)N[C@@H](Cc1ccccc1)C(=O)O` [AII], the Kd at AT2R [2] stood at 2.3 nM. Also, in assay [3], the neurite outgrowth entry is “significantly stimulated neurite outgrowth”.

`CC[C@H](C)[C@H](NC(=O)[C@H](Cc1ccc(O)cc1)NC(=O)[C@@H](NC(=O)[C@H](CCCNC(=N)N)NC(=O)[C@@H](N)CC(=O)O)C(C)C)C(=O)N[C@@H](Cc1ccc([N+](=O)[O-])cc1)C(=O)N1CCC[C@H]1C(=O)N[C@@H](Cc1ccccc1)C(=O)O` [[4-NO2-F]^6-AII, D1-R2-V3-Y4-I5-(4-NO2-F)6-P7-F8] (HELM PEPTIDE1{D.R.V.Y.I.[O=C([C@H](Cc1ccc([N+](=O)[O-])cc1)N[*:1])[*:2]].P.F}$$$$V2.0): at AT2R [1], the “Fold selectivity AT1R/AT2R” value came out at 694 fold, the “fold lower AT2R selectivity in comparison to [Y]6-AII” value is on record as 26 fold and the IC50 was 4.92 nM. Regarding “DRVYIFPF [[F]^6-AII, D1-R2-V3-Y4-I5-F6-P7-F8] [listing 1 of 2 here]”, at AT2R [1], the “Fold selectivity AT1R/AT2R” value is 4786 fold and the “fold lower AT2R selectivity in comparison to [Y]6-AII” value was roughly 4 fold. As for “DRVYIYPF [[Y]^6-AII, D1-R2-V3-Y4-I5-Y6-P7-F8]”, the “Ki AT1R” value on AT1R is on record as “No detectable competitive binding”. Besides, the “Fold selectivity AT1R/AT2R” value on AT2R [1] is 18,000 fold. The compound “[125I]-AII: radioiodinated AII, radioligand of the binding assays (DRVYIHPF; also: 125I label, position not given here; UniProt P01019 25-32, looked up)” had a Kd at AT2R [2] of 2.3 nM. Regarding `CC[C@H](C)[C@H](NC(=O)[C@@H]1CCCN1C(=O)[C@H](Cc1c[nH]cn1)NC(=O)[C@H](CCCCNC(=O)[C@H](CCCN=C(N)N)NC(=O)OCc1ccccc1)NC(=O)[C@H](Cc1ccc(O)cc1)NC(=O)c1cccnc1)C(=O)O` [CGP42112] (HELM PEPTIDE1{[O=C(c1cccnc1)[*:2]].Y.K.H.P.I}|PEPTIDE2{[O=C(OCc1ccccc1)[*:2]].R}$PEPTIDE1,PEPTIDE2,3:R3-2:R2$$$V2.0), the IC50 at AT2R [1] was 0.558 nM. On to GFPGKF, for which the PAR4 receptor activity in the assay with PAR4 receptor is 53. The PAR1 receptor activity in the assay with PAR1 receptor is on record as 35. Consider G(F)PGKF, for which the PAR4 receptor activity in the assay on PAR4 receptor was 61. In addition, the PAR1 receptor activity in the assay with PAR1 receptor is 111. GYPGKF: the PAR4 receptor activity with PAR4 receptor is on record as 55. Besides, the PAR1 receptor activity with PAR1 receptor is 0.

Regarding “DRVYIFPF [[F]^6-AII, D1-R2-V3-Y4-I5-F6-P7-F8] [listing 2 of 2 here]”, the IC50 on AT2R [1] was 1.4 nM. On the same count and under the same terms, with `CCOc1nc2cccc(C(=O)O)c2n1Cc1ccc(-c2ccccc2-c2nnn[nH]2)cc1` [Candesartan, candesartan] the figure was 13500 nM.
